The Cmax is the maximum level reached in the sampled fluid or tissue. A word on the inhibition: it is the change of the read-out against control, counted positive when it falls. Read a low inhibition as a response near the control.

Data set [1] can be described thus: In vivo pharmacokinetics, IV and oral gavage. The settings on record: rat. On the set-up: species or system male Sprague-Dawley rats. Here is the method: In vivo pharmacokinetic parameters were determined by measuring systemic plasma exposure in male Sprague-Dawley rats (Charles River Laboratories or Taconic, Oxnard, Calif.) by intravenous administration (N=3 fed rats: 2 mg/kg tail vein injection in DMSO) and oral gavage (N=3 fasted rats: 5 mg/kg in 1% Tween 80-2% HPMC-97% deionized water-pH 2.0 vehicle) (Comparative Example 18′ was only dosed IV and at 0.5 mg/kg). DMSO was obtained from Mallinckrodt Inc.; Tween 80 was obtained from Croda; HPMC is Methocel E50 Premium LV, obtained from Dow Excipients. Following oral administration, blood was drawn (250 μL) at 0.25, 0.5, 1, 2, 4, 6, 8, 12, and 16 hours. Following iv administration, blood was drawn (250 μL) at 0.083, 0.25, 0.5, 1, 2, 4, 6, 8, and 16 hours. Blood samples were drawn using a Culex® In Vivo Sampling System (BASi) and collected in BD Microtainer® tubes containing Lithium Heparin (BD). Plasma was obtained by centrifugation of blood at 14000 g and 2-8° C. for five minutes using an Eppendorf 5417R Centrifuge System. Plasma samples were mixed with 2× volume of acetonitrile (Sigma-Aldrich, St. Louis, Mo.). The mixture was stirred briefly using a vortex mixer and then centrifuged at 2867 g for 5 minutes in a Beckman Coulter Allegra 25R equipped with a Type S5700 rotor. The supernatant was removed and diluted 2× with mobile phase A (5/94.9/0.1 v/v/v MeOH/water/AcOH). Plasma concentrations were determined using liquid chromatography/tandem mass spectrometry, with electrospray ionization (ESI) and multiple reaction monitoring in the positive ion mode (Sciex API 3000 mass spectrometer connected to a Shimadzu LC-20AD pump and a LEAP PAL autosampler. Typical conditions used for HPLC were: mobile phase A=5/94.9/0.1 v/v/v MeOH/water/AcOH and mobile phase B=95/4.9/0.1 v/v/v MeOH/water/AcOH; HPLC column was a Varian MonoChrom C18.3μ for 2×30 mm and 51.1 for 2×50 mm) Instrument response was calibrated by a standard curve over 0.1-2000 ng/mL concentration range, and the lower limit of quantitation was 0.1-2.5 ng/mL. Peak areas were integrated on a Windows 2000 computer using the Sciex program Analyst® (Version 1.4.1). Following peak area integration, the data were exported to the software package (Watson® Non-GLP PROD (Version 7.0.0.01, Thermo Electron Corp., Waltham, Mass.)), where concentrations were determined by a weighted linear regression of peak area versus the nominal concentrations of the calibration standards. Calculations were performed on unrounded numbers. The Watson® Non-GLP PROD software was used to determine precision and accuracy for the calibration standards. Noncompartmental analysis of plasma concentration data was used to generate PK parameters such as clearance (CL, L/h/kg), volume of distribution (Vss, L/kg), area under the curve (AUC, ng·h/mL) and secondary parameters such as half-life (t1/2, h) and oral bioavailability (% F, %). This was done using WinNonlin Enterprise software (Version 5.1.1, from Pharsight Corp., Mountain View, Calif.). References for pharmacokinetic analysis include: Gabrielsson and Weiner (1997) Pharmacokinetic and Pharmacodynamic Data Analysis Concepts and Applications, 2nd ed., Swedish Pharmaceutical Press, Stockholm; Gibaldi and Perrier (1982) Pharmacokinetics, 2nd ed., Marcel Dekker, New York. Rowland and Tozer (1995) Clinical Pharmacokinetics: Concepts and Applications, 3rd ed., Lippincott Williams & Wilkins, Philadelphia.

The target of the next data set is T1, CYP2D6 (Homo sapiens, UniProt P10635).
T1 construct: tissue XenoTech LLC Lot 0610351; host or cells: pooled human liver microsomes
Put plainly: CYP2D6 inhibition assay (bufuralol, pooled human liver microsomes). The data set is classed as in vitro ADME. The settings on record: pH 7.4, probe bufuralol (5 μM), test compound 3 μM, human liver microsomes 0.25 mg/mL. Here is the method:
(§1) Midazolam was obtained from BD Gentest (Waltham, Mass.); 1′ hydroxy midazolam and 1-hydroxy bufuralol maleate were obtained from Ultrafine Chemicals (Manchester, UK); bufuralol HCl, ketoconazole, quinidine, potassium phosphate, and NADPH were obtained from Sigma (St. Louis, Mo.). Test compounds were prepared at 10 mM concentration in DMSO (Mallinckrodt Inc., St. Louis, Mo.). NADPH was prepared at 10 mM concentration in a pH 7.4 buffer (8.3 mg/mL 66.7 mM potassium phosphate). Midazolam was prepared at 1 mM concentration in deionized water (Amgen, Thousand Oaks, Calif.), and bufuralol was prepared at 2 mM concentration in deionized water. A stock solution of ketoconazole was prepared at 37 mM concentration in DMSO, and quinidine was prepared at 500 uM concentration in DMSO. Formic acid in acetonitrile (0.05%, ACN) was used as a quench solution (Sigma-Aldrich, St. Louis, Mo.). All solvents used for LC/MS were of chromatographic grade. Pooled human liver microsomes (Lot 0610351) were purchased from XenoTech LLC, (Lenexa, Kans.).
Pooled human liver microsomes (0.25 mg/mL) were incubated at 37° C. in a phosphate buffer (66.7 mM potassium phosphate at pH 7.4) with the selective CYP2D6 substrate bufuralol at a concentration of 5 μM in the presence and absence of test compound (3 μM). The reaction was started with the addition of NADPH (1 mM final concentration). The reaction was stopped after 10 minutes by addition of formic acid in acetonitrile. 1-Hydroxybufuralol metabolite formation was measured by an HPLC MS detection method (mobile phases for HPLC were: 0.1% AcOH in 5% MeOH, and 0.1% AcOH in 95% MeOH; the HPLC column was an Onyx Monolithic C18 CHO-7645 HPLC column from Phenomenex; Shimadzu LC-10ADVP equipped Biomek FX Liquid handling system and CTC Analytics PAL well auto-sampler; Mass spectrometer: Applied Biosystems API 3000 using Analyst 1.4.1 software). Inhibition was determined by the ratio of the amount of 1-hydroxy bufuralol metabolite formed metabolite in the presence of test compound to the amount of metabolite in the absence of test compound.

The target of a further data set is T2, CYP3A4 (Homo sapiens, UniProt P08684).
T2 construct: tissue XenoTech LLC Lot 0610351; host or cells: pooled human liver microsomes
Put plainly: CYP3A4 inhibition assay (midazolam, pooled human liver microsomes). The data set is classed as in vitro ADME. Particulars: pH 7.4, probe midazolam (2.5 μM), test compound 3 μM, human liver microsomes 0.1 mg/mL. The method, then: as §1
Pooled human liver microsomes (0.1 mg/mL) were incubated at 37° C. in a phosphate buffer (66.7 mM potassium phosphate at pH 7.4) with the selective CYP3A substrate midazolam at a concentration of 2.5 μM in the presence and absence of test compound (3 μM). The reaction was started with the addition of NADPH (1 mM final concentration). The reaction was stopped after 10 minutes by addition of formic acid in acetonitrile. 1′-Hydroxymidazolam metabolite formation was measured by an HPLC MS detection method (mobile phases were 0.1% AcOH in 5% MeOH, and 0.1% AcOH in 95% MeOH; the HPLC column was an Onyx Monolithic C18 CHO-7645 HPLC column obtained from Phenomenex; Shimadzu LC-10ADVP equipped Biomek FX Liquid handling system and CTC Analytics PAL well auto-sampler; Mass spectrometer: Applied Biosystems API 3000 using Analyst 1.4.1 software). Inhibition was determined by the ratio of the amount of 1′-hydroxy midazolam metabolite formed in the presence of test compound to the amount of metabolite found in the absence of test compound Inhibition was measured relative to the rate of formation of 1′-hydroxy midazolam incubated at 2.5 μM without test compound.
On the technique in general: Liver microsomes are vesicles of endoplasmic reticulum, rich in cytochrome P450 enzymes.

Where two headings read alike, the source gives them in different places.

T1 sequence (P10635 whole entry): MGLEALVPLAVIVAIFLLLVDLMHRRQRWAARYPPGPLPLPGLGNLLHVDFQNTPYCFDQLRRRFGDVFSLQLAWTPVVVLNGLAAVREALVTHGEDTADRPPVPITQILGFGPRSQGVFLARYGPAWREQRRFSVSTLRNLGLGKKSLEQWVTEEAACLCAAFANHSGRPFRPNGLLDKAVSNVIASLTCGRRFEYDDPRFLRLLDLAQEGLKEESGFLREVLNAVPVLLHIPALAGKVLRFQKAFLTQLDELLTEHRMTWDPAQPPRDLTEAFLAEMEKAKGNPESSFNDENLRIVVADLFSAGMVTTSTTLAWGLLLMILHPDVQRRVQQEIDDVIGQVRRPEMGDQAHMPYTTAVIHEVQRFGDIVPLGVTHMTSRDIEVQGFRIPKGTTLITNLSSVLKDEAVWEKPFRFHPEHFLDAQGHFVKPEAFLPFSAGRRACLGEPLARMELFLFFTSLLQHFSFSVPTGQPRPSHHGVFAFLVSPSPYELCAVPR
T2 sequence (P08684 whole entry): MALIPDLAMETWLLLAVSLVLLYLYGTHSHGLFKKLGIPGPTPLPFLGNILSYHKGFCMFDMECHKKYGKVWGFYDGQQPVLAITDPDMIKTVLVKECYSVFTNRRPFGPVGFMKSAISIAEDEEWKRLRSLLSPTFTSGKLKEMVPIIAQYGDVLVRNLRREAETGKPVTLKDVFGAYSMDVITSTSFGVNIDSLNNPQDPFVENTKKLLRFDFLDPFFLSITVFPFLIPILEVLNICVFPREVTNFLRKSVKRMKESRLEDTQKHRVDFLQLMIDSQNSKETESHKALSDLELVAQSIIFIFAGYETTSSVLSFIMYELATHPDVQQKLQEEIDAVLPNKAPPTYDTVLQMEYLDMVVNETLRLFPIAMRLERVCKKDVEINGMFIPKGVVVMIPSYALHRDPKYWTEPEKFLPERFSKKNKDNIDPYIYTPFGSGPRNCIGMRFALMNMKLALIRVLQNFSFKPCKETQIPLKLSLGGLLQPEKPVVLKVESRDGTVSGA

In data set [1] (Table 5, PO 5 mg/kg, IV 2 mg/kg), `C[C@@H](c1ccc(C(F)(F)F)cc1)[C@H](N)CNc1ncc(-c2ccc3cnccc3c2)s1` [10′, reference compound] registered an FPO of 12%. The “Fpo (%)” value in data set [1] (Table 6, PO 5 mg/kg, IV 2 mg/kg) turned out to be 25%. In data set [1] (male, Sprague-Dawley, plasma, IV 2 mg/kg), this molecule gave a clearance of 19.1 mL/min/kg. The AUC(0-t) was 1680 ng·h/mL in data set [1] (male, Sprague-Dawley, plasma, IV 2 mg/kg, read-out: IV AUClast) and 487 ng·h/mL in data set [1] (male, Sprague-Dawley, plasma, PO 5 mg/kg, read-out: Oral AUClast). In addition, the Cmax stood at 730 ng/mL in data set [1] (male, Sprague-Dawley, plasma, IV 2 mg/kg, read-out: IV Cmax) and 73 ng/mL in data set [1] (male, Sprague-Dawley, plasma, PO 5 mg/kg, read-out: Oral Cmax). Also, the Vd in data set [1] (male, Sprague-Dawley, plasma, IV 2 mg/kg, read-out: Vss) stood at 9.46 L/kg. The results for the inhibition at 10 min, 3 μM against CYP2D6 and against CYP3A4 were 86% and 94%, respectively.
